Results on 8 compounds are retold here after patent US10556883B2, “Benzenesulfonamide compounds, method for synthesizing same, and use thereof in medicine and cosmetics” (GALDERMA RESEARCH & DEVELOPMENT, priority 2016, dated 2020).

Assay [1] relates to TNFα secretion from LPS stimulated frozen Peripheral Blood Mononuclear Cells (PBMC). Put plainly: inhibition of TNFα secretion from LPS stimulated human PBMC (hPBMC assay). As to conditions: LPS 1 μg/mL, overnight incubation, TNFα by HTRF. In kind it is cell-based. The procedure:
Activity of the compounds was investigated using human peripheral blood mononuclear cells (hPBMC). This assay was designed to measure the inhibition of the TNFα secretion from LPS stimulated frozen Peripheral Blood Mononuclear Cells (PBMC) isolated from human blood. TNFα levels were measured using HTRF® Human TNFα kit (Cisbio #62TNFPEC) which is a rapid and quantitative sandwich immunoassay based on TR-FRET technology.
Frozen PBMC were quickly thawed, resuspended in culture medium (RPMI 10% inactivated FBS) and viable cells were seeded in 96-well plates (50,000 cells/well). […] After overnight incubation at 37° C., 10 μL of cell supernatant were mixed with 5 μL of each tagged anti-TNFα specific antibody as recommended by the supplier. After 2 hours of incubation at room temperature, the HTRF® signals were measured using a microplate reader (wavelengths: excitation=337 nm, first emission=620 nm, second emission=665 nm).

Assay [2] addresses Recombinant Human catalytic domains of MMP1 (Homo sapiens (Human), UniProt P03956). The experiment in a line: MMP1 isolated enzyme assay, profluorescent peptidic substrate. In kind it is biochemical. To be noted: 10 minutes incubation at room temperature; read-out: MMP1 enz IC50. The source says: Activity of the compounds was investigated using MMP1 isolated enzyme.
Assay [3] concerns the target Recombinant Human ADAM17 catalytic domain (Homo sapiens (Human), UniProt P78536). The experiment in a line: TACE (ADAM17) isolated enzyme assay, profluorescent peptidic substrate. To be noted: read-out: TACE enz IC50; ADAM17 catalytic domain 500 nM, 40 μM substrate, two hours.
Protocol: Activity of the compounds was investigated using TACE (ADAM17) isolated enzyme. […] Mca fluorescence was quenched by the Dpa group until cleavage by ADAM17 at the Ala-Val bond separates the two moieties.
The enzymatic reaction was performed in 384-well microplates with a final volume of 10 μL containing 1% DMSO. Recombinant Human ADAM17 catalytic domain (500 nM) was assayed with 40 μM of substrate and serial dilutions of tested inhibitors (from 10000 nM to 0.04 nM). After two hours of incubation at room temperature, the fluorescence was measured using a microplate reader (320/425 nm).
Data were normalized using the average of positive controls (enzyme with no inhibitor) and negative controls (no enzyme). IC50 were calculated using a four-parameters logistic model.
The target in the next assay is TACE enzyme (Homo sapiens (Human), UniProt P78536). To be noted: WO 00/44709, page 251, table 10, example 61; cited from earlier work.
Chain of TACE enzyme (P78536 215-824): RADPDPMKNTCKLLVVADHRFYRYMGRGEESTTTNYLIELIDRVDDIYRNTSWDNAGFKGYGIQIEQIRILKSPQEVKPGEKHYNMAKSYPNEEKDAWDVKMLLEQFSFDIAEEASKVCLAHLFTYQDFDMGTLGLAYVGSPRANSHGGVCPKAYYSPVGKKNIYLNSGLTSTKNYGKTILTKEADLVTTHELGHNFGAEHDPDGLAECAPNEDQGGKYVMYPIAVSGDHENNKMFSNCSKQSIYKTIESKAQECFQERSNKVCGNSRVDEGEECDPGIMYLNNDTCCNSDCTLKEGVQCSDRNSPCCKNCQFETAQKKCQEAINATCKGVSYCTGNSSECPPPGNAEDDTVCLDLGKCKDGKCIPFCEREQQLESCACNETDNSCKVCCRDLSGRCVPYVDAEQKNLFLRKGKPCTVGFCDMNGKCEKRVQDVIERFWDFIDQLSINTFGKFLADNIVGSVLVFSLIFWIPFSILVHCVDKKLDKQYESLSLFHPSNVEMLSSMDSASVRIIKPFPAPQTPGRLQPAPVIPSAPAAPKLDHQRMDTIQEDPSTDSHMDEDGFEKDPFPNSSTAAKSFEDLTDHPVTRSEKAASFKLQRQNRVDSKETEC

The structures appear in SMILES notation.

Chain of Recombinant Human catalytic domains of MMP1 (P03956 98-276): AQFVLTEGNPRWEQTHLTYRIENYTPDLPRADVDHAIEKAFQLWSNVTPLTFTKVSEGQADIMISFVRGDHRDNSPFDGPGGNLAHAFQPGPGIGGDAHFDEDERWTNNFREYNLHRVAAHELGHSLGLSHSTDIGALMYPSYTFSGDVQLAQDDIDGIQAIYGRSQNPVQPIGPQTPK
Chain of Recombinant Human ADAM17 catalytic domain (P78536 223-474): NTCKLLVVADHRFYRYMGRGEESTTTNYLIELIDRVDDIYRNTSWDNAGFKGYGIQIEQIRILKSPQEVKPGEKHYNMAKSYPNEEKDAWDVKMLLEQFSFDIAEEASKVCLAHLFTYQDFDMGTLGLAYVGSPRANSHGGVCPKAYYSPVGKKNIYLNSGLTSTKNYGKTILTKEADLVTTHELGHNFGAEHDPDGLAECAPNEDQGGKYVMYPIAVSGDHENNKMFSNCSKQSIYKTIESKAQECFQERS

As a reminder, the IC50 is the concentration that inhibits the measured activity by half. With `Cc1cc(COc2ccc(S(=O)(=O)NC3(C(=O)NO)CN(C(=O)CC4CCC4)C3)cc2)c2ccccc2n1` [Example 26f, 1-(2-cyclobutylacetyl)-N-hydroxy-3-((4-((2-methylquinolin-4-yl)methoxy)phenyl)sulfonamido)azetidine-3-carboxamide], the IC50 in assay [1] is below 50 nM; in assay [2] it was above 10000 nM; in assay [3] it was 11.4 nM.

For `Cc1cc(COc2ccc(S(=O)(=O)NC3(CC(=O)NO)CN(C(=O)C(C)(C)N(C)C)C3)cc2)c2ccccc2n1` [Example 18, 2-(1-(2-(dimethylamino)-2-methylpropanoyl)-3-((4-((2-methylquinolin-4-yl)methoxy)phenyl)sulfonamido)azetidin-3-yl)-N-hydroxyacetamide], the IC50 in assay [1] is below 50 nM; in assay [2], above 10000 nM; in assay [3], 3.5 nM.

With `CC1(C)SCCN(S(=O)(=O)c2ccc(OCC#CCO)cc2)[C@H]1C(=O)NO` [Apratastat], the “selectivity for the TACE enzyme compared with certain MMPs” value on TACE enzyme is on record as “not selective”.

Consider `CCN1CCN(C(=O)N2CC(CC(=O)NO)(NS(=O)(=O)c3ccc(OCc4cc(C)nc5ccccc45)cc3)C2)CC1` [Example 28b, 2-(1-(4-ethylpiperazine-1-carbonyl)-3-((4-((2-methylquinolin-4-yl)methoxy)phenyl)sulfonamido)azetidin-3-yl)-N-hydroxyacetamide], for which the IC50 in assay [1] is below 50 nM; in assay [2] it was above 10000 nM; in assay [3], 5.6 nM.

Regarding `Cc1cc(COc2ccc(S(=O)(=O)NC3(CC(=O)NO)CN(C(=O)CC(C)(C)C)C3)cc2)c2ccccc2n1` [Example 11, 2-(1-(3,3-dimethylbutanoyl)-3-((4-((2-methylquinolin-4-yl)methoxy)phenyl)sulfonamido)azetidin-3-yl)-N-hydroxyacetamide], the results for the IC50 in assay [1], in assay [2] and in assay [3] were below 50 nM, above 10000 nM and 8.2 nM, respectively.

Consider `Cc1cc(COc2ccc(S(=O)(=O)NC3(C(=O)NO)CN(C(=O)C(C)C)C3)cc2)c2ccccc2n1` [Example 7b, N-hydroxy-1-isobutyryl-3-((4-((2-methylquinolin-4-yl)methoxy)phenyl)sulfonamido)azetidine-3-carboxamide], for which the figures for the IC50 in assay [1], in assay [2] and in assay [3] were below 50 nM, above 10000 nM and 5.2 nM, respectively.

For `Cc1cc(COc2ccc(S(=O)(=O)NC3(CC(=O)NO)CN(C(=O)N4CCN(C)CC4)C3)cc2)c2ccccc2n1` [Example 10, N-hydroxy-2-(1-(4-methylpiperazine-1-carbonyl)-3-((4-((2-methylquinolin-4-yl)methoxy)phenyl)sulfonamido)azetidin-3-yl)acetamide], the values for the IC50 in assay [1], in assay [2] and in assay [3] were below 50 nM, above 10000 nM and 2.8 nM, respectively.

Consider `Cc1cc(COc2ccc(S(=O)(=O)NC3(CC(=O)NO)CN(C(=O)C4CCCC4)C3)cc2)c2ccccc2n1` [Example 4h, 2-(1-(cyclopentanecarbonyl)-3-((4-((2-methylquinolin-4-yl)methoxy)phenyl)sulfonamido)azetidin-3-yl)-N-hydroxyacetamide], for which the half-maximal inhibitory concentration (IC50) in assay [1] was below 50 nM.
